Assay results published in ChEMBL document CHEMBL1152959, “Design, synthesis and dopamine D4 receptor binding activities of new N-heteroaromatic 5/6-ring Mannich bases” (Bioorg Med Chem, 2009).
pKi: −log10 of the molar value.

Columns and labels:
[1] = target: T1, D(4) dopamine receptor (Homo sapiens) (UniProt P21917); assay: Displacement of [3H]spiperone from human cloned dopamine D4.4 receptor expressed in CHO cells at 100 nM; assay type: cell-based
T1 sequence (whole entry): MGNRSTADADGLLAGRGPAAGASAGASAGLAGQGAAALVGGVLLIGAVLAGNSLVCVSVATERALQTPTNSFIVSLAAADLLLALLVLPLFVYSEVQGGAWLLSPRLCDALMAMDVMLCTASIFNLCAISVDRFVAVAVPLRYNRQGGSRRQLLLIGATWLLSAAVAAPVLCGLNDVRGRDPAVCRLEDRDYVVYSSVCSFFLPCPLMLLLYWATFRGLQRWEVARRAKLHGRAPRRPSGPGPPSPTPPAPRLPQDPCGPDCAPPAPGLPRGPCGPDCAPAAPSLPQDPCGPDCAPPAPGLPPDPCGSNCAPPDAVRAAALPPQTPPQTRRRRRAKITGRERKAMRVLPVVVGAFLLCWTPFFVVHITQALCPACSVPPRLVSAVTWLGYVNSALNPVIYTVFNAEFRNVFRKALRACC

D(2) dopamine receptor [2] = target: T2, D(2) dopamine receptor (Homo sapiens, UniProt P14416); assay: Displacement of [3H]spiperone from human cloned dopamine D2 long receptor expressed in CHO cells at 100 nM; assay type: cell-based
[3] = target: D(1A) dopamine receptor (Sus scrofa) (UniProt P50130); assay: Displacement of [3H]SCH23390 from pig dopamine D1 receptor at 100 nM
D(1A) dopamine receptor = D(1A) dopamine receptor (Bos taurus, UniProt Q95136)
Description: Displacement of [3H]SCH23390 from bovine dopamine D1 receptor

D(4) dopamine receptor = target: T3, D(4) dopamine receptor (Homo sapiens, UniProt P21917); assay: Displacement of [3H]spiroperidol from human cloned dopamine D4.4 receptor expressed in CHO cells; assay type: cell-based
T3 sequence (P21917 whole entry): T1 sequence (whole entry)

D(2) dopamine receptor [4] = target: T2, D(2) dopamine receptor; assay: biochemical
Description: Displacement of [3H]spiroperidol from human cloned dopamine D2 short receptor expressed in CHO cells

D(3) dopamine receptor = D(3) dopamine receptor (Homo sapiens, UniProt P35462); assay: biochemical
Description: Displacement of [3H]spiroperidol from human cloned dopamine D3 receptor expressed in CHO cells

D(2) dopamine receptor [5] = target: T2, D(2) dopamine receptor; assay: biochemical; remark: listed apart in the source
Description: Displacement of [3H]SCH23390 from human cloned dopamine D2 long receptor expressed in CHO cells

T2 sequence (P14416 whole entry): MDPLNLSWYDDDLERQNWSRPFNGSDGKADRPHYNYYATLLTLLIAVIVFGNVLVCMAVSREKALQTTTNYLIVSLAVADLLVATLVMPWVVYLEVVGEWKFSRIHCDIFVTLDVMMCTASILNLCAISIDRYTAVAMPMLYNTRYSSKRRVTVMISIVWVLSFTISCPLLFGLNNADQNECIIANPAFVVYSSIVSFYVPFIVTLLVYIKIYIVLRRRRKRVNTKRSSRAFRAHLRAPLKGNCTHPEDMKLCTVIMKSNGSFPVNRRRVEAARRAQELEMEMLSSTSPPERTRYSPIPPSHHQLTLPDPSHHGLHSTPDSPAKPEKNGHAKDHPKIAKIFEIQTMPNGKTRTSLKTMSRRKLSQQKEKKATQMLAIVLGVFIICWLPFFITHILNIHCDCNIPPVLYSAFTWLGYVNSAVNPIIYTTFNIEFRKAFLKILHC
Chain of D(1A) dopamine receptor (Q95136 whole entry): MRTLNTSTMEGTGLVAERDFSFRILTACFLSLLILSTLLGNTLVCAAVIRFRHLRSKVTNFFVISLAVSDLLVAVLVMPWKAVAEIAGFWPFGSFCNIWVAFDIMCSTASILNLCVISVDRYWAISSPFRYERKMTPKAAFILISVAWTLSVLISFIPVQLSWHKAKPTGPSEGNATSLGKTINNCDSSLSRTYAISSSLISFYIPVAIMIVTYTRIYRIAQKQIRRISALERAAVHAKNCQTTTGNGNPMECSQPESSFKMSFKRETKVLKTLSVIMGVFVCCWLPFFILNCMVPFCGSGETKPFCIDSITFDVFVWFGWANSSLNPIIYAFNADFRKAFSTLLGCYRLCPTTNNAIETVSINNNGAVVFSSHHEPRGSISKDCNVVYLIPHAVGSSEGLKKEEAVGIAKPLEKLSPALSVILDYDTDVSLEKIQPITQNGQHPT
Chain of D(1A) dopamine receptor (Sus scrofa) (P50130 whole entry): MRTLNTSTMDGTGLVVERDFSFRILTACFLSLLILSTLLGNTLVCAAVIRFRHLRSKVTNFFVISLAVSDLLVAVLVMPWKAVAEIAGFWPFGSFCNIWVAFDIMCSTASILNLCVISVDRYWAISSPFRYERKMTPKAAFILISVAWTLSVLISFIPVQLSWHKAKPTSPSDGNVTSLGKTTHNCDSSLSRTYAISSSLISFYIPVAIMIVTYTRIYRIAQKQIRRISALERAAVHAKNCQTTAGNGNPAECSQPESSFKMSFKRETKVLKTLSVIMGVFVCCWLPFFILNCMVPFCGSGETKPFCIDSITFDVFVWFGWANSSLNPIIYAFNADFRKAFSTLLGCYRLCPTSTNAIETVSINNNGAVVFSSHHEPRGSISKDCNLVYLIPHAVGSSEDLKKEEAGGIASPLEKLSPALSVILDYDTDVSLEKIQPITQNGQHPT
Chain of D(3) dopamine receptor (P35462 whole entry): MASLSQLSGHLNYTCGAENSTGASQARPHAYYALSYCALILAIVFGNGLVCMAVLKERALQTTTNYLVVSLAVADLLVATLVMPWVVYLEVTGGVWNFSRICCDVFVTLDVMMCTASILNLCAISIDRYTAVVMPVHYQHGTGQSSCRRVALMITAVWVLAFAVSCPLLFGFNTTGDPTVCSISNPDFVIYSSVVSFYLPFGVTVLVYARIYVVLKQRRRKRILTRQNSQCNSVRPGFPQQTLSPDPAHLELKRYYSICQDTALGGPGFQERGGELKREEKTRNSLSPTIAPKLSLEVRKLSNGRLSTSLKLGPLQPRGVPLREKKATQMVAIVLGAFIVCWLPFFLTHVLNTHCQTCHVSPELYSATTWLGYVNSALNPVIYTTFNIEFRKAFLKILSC

SMILES	Activity [1] [%]	Activity (D(2) dopamine receptor [2]) [%]	Activity [3] [%]	pKi (D(1A) dopamine receptor)	pKi (D(4) dopamine receptor)	pKi (D(2) dopamine receptor [4])	pKi (D(3) dopamine receptor)	pKi (D(2) dopamine receptor [5])
COc1cc2ncc(CN3CCN(c4ccccc4OC)CC3)n2c(OC)n1	20	0	0					
Cn1c(N2CCCC2)nc2c(CN3CCN(c4ccc(F)cc4)CC3)c[nH]c2c1=O				6.80	7.80	6.40	6.20	6.08
COc1ccc(N2CCN(Cc3cnc4cc(C)nc(C)n34)CC2)cc1	0	0	0					
CCOC(=O)c1nc2cc(C)nc(C)n2c1CN1CCN(c2ccc(OC)cc2)CC1	0	0	0					
Cc1cc2ncc(CN3CCN(c4ccccc4)CC3)n2c(C)n1	0	0	0					
Cc1cc2nc(C)c(CN3CCN(c4ccc(Cl)c(Cl)c4)CC3)n2cn1	20	0	0					
COc1ccc(N2CCN(Cc3cnc4ccncn34)CC2)cc1	0	0	0					
Cn1c(N2CCCC2)nc2c(CN3CCN(c4ccccn4)CC3)c[nH]c2c1=O				6.10	8.55	6.82	6.51	6.57
Cc1cc2nc(C)c(CN3CCN(c4ccccc4)CC3)n2c(C)n1				4.96	7.15	4.96	5.38	5.07
COc1ccc(N2CCN(Cc3c(C)nc4cc(C)nc(C)n34)CC2)cc1	0	0	0	5.18	6.02	6.80	8.07	6.59
COc1ccccc1N1CCN(Cc2cnc3cc(C)nc(C)n23)CC1				4.96	7.18	6.24	5.82	5.89
COc1ccccc1N1CCN(Cc2cnc3cc(C)ncn23)CC1	0	0	0					
COc1ccccc1N1CCN(Cc2c(C)[nH]c3nc(N(C)C)ncc23)CC1	80	20	0	5.17	8.19	5.54	5.21	5.59
Cc1cc2nc(C)c(CN3CCN(c4ccc(Cl)cc4)CC3)n2cn1	0	0	0					
COc1ccccc1N1CCN(Cc2c(C)nc3cc(C)nc(C)n23)CC1	60	0	0	5.08	7.85	5.54	5.47	5.64
Cc1cc2nc(C)c(CN3CCN(c4ccccn4)CC3)n2c(C)n1				4.66	6.92	5.00	6.19	4.77
Cc1cc2nc(C)c(CN3CCN(c4ccccn4)CC3)n2cn1	40	0	0					
COc1ccccc1N1CCN(Cc2cc3c(=O)[nH]c(N(C)C)nc3[nH]2)CC1	60	20	20	5.08	8.62	6.77	6.02	6.89
Cn1c(N2CCCC2)nc2c(CN3CCN(c4ccccc4)CC3)c[nH]c2c1=O				6.60	8.42	6.74	6.48	6.41
Cc1cc2ncc(CN3CCN(c4ccccc4)CC3)n2cn1	20	0	0					

SMILES	Activity [1] [%]	Activity (D(2) dopamine receptor [2]) [%]	Activity [3] [%]	pKi (D(1A) dopamine receptor)	pKi (D(4) dopamine receptor)	pKi (D(2) dopamine receptor [4])	pKi (D(3) dopamine receptor)	pKi (D(2) dopamine receptor [5])
COc1ccc(N2CCN(Cc3cnc4cc(C)ncn34)CC2)cc1	0	0	0					
Cc1cc2nc(C)c(CN3CCN(c4ccc(Cl)cc4)CC3)n2c(C)n1				5.15	7.18	4.24	5.51	4.59
Cc1cc2ncc(CN3CCN(c4ccc(Cl)cc4)CC3)n2cn1	0	0	0					
Cc1cc2nc(C)c(CN3CCN(c4ccc(Cl)c(Cl)c4)CC3)n2c(C)n1				5.68	7.68	5.26	5.89	5.48
Cc1cc2ncc(CN3CCN(c4ccccn4)CC3)n2cn1	0	0	0					
Clc1nccc2c(CN3CCN(c4ccccc4)CC3)c[nH]c12				5.17	8.19	5.54	5.21	5.59
Cc1cc2ncc(CN3CCN(c4ccc(Cl)c(Cl)c4)CC3)n2c(C)n1	0	0	0					
COc1ccc(N2CCN(Cc3c(C)nc4cc(C)ncn34)CC2)cc1	60	0	0	4.57	7.92	4.89	4.89	5.04
Cc1cc2ncc(CN3CCN(c4ccccn4)CC3)n2c(C)n1	0	0	0					
Cn1c(N2CCCC2)nc2c(CN3CCN(c4ccc(Cl)c(Cl)c4)CC3)c[nH]c2c1=O				5.82	8.47	6.42	6.32	6.24
COc1ccccc1N1CCN(Cc2c(C)nc3cc(C)ncn23)CC1	20	0	0	4.23	7.41	4.28	4.17	4.40
Cc1cc2nc(C)c(CN3CCN(c4ccccc4)CC3)n2cn1	0	0	0					
COc1ccc(N2CCN(Cc3c(C)[nH]c4nc(N(C)C)ncc34)CC2)cc1	0	0	0					
COc1ccc(N2CCN(Cc3cnc4cc(OC)nc(OC)n34)CC2)cc1	0	20	0					
CCOC(=O)c1nc2cc(C)nc(C)n2c1CN1CCN(c2ccccc2OC)CC1	0	0	0					
Cc1cc2ncc(CN3CCN(c4ccc(Cl)cc4)CC3)n2c(C)n1	0	0	0					
Cc1cc2nc(C)c(CN3CCN(c4ccc(F)cc4)CC3)n2c(C)n1				4.92	6.44	5.46	4.66	5.33
Cc1cc2ncc(CN3CCN(c4ccc(Cl)c(Cl)c4)CC3)n2cn1	0	0	0					
Cn1c(N2CCOCC2)nc2c(CN3CCN(c4ccccc4)CC3)c[nH]c2c1=O				6.28	7.60	6.14	5.57	5.96
